Like-named read-outs stand apart in the source and are kept apart here.
Tests used:
Sprague Dawley rats = type: in vivo, rat
Method: Groups of 5 animals sex^−1 were sacrificed on Study Days 3 (48 h) and 15 for evaluation of clinical pathology and organ toxicity. […] Parameters evaluated for test article effect included survival, clinical observations, body weight, body weight gain, clinical pathology, gross pathology, organ weights, and microscopic pathology.
The purpose of this study was to evaluate the toxicity of [19F]FP-R 1-MG-F2 following a single […]
intra ven ous dose in rats. This study consisted of one test article treatment group of ten male and ten fem ale Spr ague-Dawley rats dosed with [19F]FP-R 1-MG-F2 (note - sm all m olecule […]
[…] An additio na l grou p of ten m ales and ten females received the vehicle, 10% Ethanol in Sterile Saline, and ser ved as the control. All rats received a dose volum e of 5 m L/k g. T he rats were dosed intravenous ly onc e on Stud y Da y 1.
Five m ale and five fem ale rats from each group were bled on Stud y Da y 3 and the rem aining rats were bled on Stud y D ay 15. All an im als were e u than ized a nd necrops ied f ollo wing b loo d collect ion . Param eters evalu ated f or test art icle ef f ect inclu ded sur viva l, clin ica l obser vat ions, bod y weight, bod y weight gain, clinical patholog y, gross pathology, organ weights, and […]
the study. No abnorm al findings were indicated dur ing mortality checks (cagesides) or hands-on […]
be related to treatm ent related.
Under the conditions of this study, there were no treatm ent related findings in Sprague Dawley rats three or fifteen da ys after a single intravenous dose of [19F]FP-R01-MG-F2 at 1.10 mg/kg. […]
intravenous dose in rats. […]
The test article (TA), [19F]FP-R 1-MG-F2, was received from the Sponsor on Aug ust 25, […]
2014, described as a wh ite po wd er . The test article was stored frozen in a g lass vial.
Copies of the Test Artic le Data Sheets are included in Appendix D.
Note: Test article nam e as per the Qualit y Control Record (Appendix D) is listed as FP-GLY-36-Gly-NH2, which represents the chem ical structure. T he test article is referred to b y the comm ercial nam e provided b y the client ([19F]FP-R 1-MG-F2) throughout this report and […]
Name Lot No. Supplier Purit y
The vehicle used in this study was 10% Ethanol in Sterile Saline (0.9% sodium chloride, USP). The vehic le com ponents were purchased commercially b y SoBran and stored at room tem perature in accordance with the m anufacturer instructions. Copies of the Certificate of Anal yses for the lots of 10% Ethanol and Sterile Saline used are included in […]
Name Lot No. Supplier Concentration
Etha no l (20 0 pro of ), USP SHBB0 212 V Sigm a Aldrich; Sa int 99.87% […]
0.9% Sod ium Chlor ide, USP C886374 Baxter; C le ve lan d, 0.888% […]
The 0.22 mg/mL test article solution was pr epar ed b y adding 40 mL of 10% ethanol solution (vehicle control) to 8.8 mg of the test article, mixed gently, and then filtered using a 2µ sterile syringe filter. The pH of the 10% ethanol solution wa s adj us ted us ing HCl and NaO H to achieve a pH of 7.4. The vehicle was passed through a 2µ sterile syringe filter af t er pH […]
On October 2, 2014, 21 male and 21 female Sprague-Dawle y rats were obtained from Harlan, Frederick , MD. The supplier verified that the anim als were free of specific active inf ectious dise ases prior to arriva l at the SoBra n f acilit y. At init iat ion of dosing , the m ale and fem ale rats were 7 week s of age, (Date of Birth: 8/15/14). At ra ndom iza tion th e bod y weights of the rats used on stud y ranged from 199.05 to 218.61 gram s (m ales) […]
Rats were chosen for use in this stud y since the y are considered an acceptable anim al model for the rodent species for acute toxicity tests prior to clinical use.
The animals were housed following the specifications recommended in The Guide for the […]

human integrin αvβ6 = biological target: T1, human integrin αvβ6 (Homo sapiens, UniProt P06756+P18564, DEL708-788); experiment: Competition binding (IC50) against yeast surface-displayed R01-MG
T1 construct: purchased R&D Systems

[1] = Day 3, Group 2 males, p < 0.05, within historical range

T1 sequence (P06756 31-992 limits assumed, stated change not applied): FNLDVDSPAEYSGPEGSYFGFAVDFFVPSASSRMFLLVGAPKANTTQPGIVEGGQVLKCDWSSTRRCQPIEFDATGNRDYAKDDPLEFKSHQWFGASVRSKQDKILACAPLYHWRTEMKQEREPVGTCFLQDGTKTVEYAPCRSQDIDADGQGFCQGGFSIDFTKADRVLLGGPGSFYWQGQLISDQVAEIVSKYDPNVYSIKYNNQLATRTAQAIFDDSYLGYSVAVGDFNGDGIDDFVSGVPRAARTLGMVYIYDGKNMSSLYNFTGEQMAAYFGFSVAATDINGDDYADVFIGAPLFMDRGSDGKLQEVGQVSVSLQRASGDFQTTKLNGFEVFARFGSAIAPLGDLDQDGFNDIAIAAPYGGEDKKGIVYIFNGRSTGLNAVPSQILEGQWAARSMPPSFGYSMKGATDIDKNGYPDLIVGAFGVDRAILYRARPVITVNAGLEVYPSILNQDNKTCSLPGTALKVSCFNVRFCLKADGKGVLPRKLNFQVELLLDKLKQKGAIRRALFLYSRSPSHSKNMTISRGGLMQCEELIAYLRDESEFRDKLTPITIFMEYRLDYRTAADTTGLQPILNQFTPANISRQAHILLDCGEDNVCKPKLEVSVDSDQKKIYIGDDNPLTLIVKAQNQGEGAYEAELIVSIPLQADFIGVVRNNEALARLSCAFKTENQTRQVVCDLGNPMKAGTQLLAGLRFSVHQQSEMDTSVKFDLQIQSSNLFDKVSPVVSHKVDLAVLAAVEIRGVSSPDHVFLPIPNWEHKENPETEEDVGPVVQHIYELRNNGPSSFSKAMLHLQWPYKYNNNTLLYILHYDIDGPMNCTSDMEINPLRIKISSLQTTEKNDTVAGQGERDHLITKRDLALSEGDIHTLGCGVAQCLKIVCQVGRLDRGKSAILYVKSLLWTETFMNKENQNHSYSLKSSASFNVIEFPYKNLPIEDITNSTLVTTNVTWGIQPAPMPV
T1 sequence (P18564 22-707 limits assumed, stated change not applied): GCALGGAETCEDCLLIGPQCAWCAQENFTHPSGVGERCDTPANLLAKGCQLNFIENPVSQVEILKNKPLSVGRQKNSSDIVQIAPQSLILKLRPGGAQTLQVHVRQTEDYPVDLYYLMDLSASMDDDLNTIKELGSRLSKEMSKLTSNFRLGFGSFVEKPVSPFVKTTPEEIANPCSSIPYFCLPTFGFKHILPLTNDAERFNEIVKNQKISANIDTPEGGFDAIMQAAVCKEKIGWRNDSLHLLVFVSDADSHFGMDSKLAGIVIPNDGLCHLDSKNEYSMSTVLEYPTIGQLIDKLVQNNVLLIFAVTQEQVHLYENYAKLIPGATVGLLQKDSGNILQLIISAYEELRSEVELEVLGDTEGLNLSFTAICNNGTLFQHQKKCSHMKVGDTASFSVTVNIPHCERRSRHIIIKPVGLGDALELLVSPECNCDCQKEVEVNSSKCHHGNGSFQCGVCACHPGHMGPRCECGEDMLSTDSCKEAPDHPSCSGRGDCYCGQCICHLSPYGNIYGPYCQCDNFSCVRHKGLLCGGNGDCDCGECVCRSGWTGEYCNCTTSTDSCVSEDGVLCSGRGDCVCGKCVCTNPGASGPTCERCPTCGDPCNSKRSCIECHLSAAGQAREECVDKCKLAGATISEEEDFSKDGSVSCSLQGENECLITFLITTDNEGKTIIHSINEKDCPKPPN

## CC[C@H](C)[C@@H]1NC(=O)[C@@H](NC(=O)CNC(=O)[C@@H](C)F)CSSC[C@@H]2NC(=O)[C@H](C)NC(=O)CNC(=O)[C@@H]3CCCN3C(=O)[C@@H]3CSSC[C@@H](C(=O)NCC(N)=O)NC(=O)[C@H](Cc4ccc(O)cc4)NC(=O)CNC(=O)[C@H](CC(N)=O)NC(=O)CNC(=O)[C@H](CCCNC(=N)N)NC(=O)[C@H](CSSC[C@H](NC(=O)[C@H](CCCNC(=N)N)NC(=O)[C@H](Cc4ccccc4)NC(=O)[C@H](CC(C)C)NC(=O)[C@H](CC(C)C)NC(=O)[C@H]([C@@H](C)O)NC(=O)CNC(=O)[C@H](CC(C)C)NC(=O)[C@H](CC(=O)O)NC(=O)[C@H]([C@@H](C)O)NC(=O)[C@H](CCCNC(=N)N)NC(=O)CNC(=O)[C@H](CC(N)=O)NC(=O)[C@H](CC(C)C)NC1=O)C(=O)N[C@@H](CCCNC(=N)N)C(=O)N[C@@H](CCCNC(=N)N)C(=O)N[C@@H](CC(=O)O)C(=O)N[C@@H](CO)C(=O)N[C@@H](CC(=O)O)C(=O)N3)NC(=O)[C@H]([C@@H](C)CC)NC2=O [[^19F]FP-R01-MG-F2]
Sprague Dawley rats; Day 3, Group 2 females
  Organ weight, Brain, mean: 1.5766
  Organ weight, Eyes with optic nerve, mean: 0.2641
  Organ weight, Heart, mean: 0.6540
  Organ weight, Kidneys, mean: 1.2874
  Organ weight, Liver, mean: 5.9521
  Organ weight, Lungs, mean: 1.5304
  Organ weight, Ovaries, mean: 0.1595
  Organ weight, Spleen, mean: 0.4955
  Organ weight, Thyroid (both lobes with parathyroid), mean: 0.0479
Sprague Dawley rats; Day 3, Group 2 males
  Organ weight, Brain, mean: 1.7081
  Organ weight, Eyes with optic nerve, mean: 0.3216
  Organ weight, Heart, mean: 0.9438
  Organ weight, Kidneys, mean: 1.7156
  Organ weight, Liver, mean: 8.4988
  Organ weight, Lungs, mean: 1.6368
  Organ weight, Spleen, mean: 0.6601
  Organ weight, Testes, mean: 2.9952
  Organ weight, Thyroid (both lobes with parathyroid), mean: 0.0299
Sprague Dawley rats; Day 3, Group 2 males, p < 0.05, not believed biologically meaningful
  alkaline phosphatase (ALP) vs control: increase
Sprague Dawley rats; [1]
  absolute large unstained cell counts (ALUC) vs control: increased
  absolute lymphocyte counts (ALY) vs control: increased
  absolute monocyte counts (AMO) vs control: increased
  white blood cell counts (WBC) vs control: increased
Sprague Dawley rats; Day 15, Group 2 females
  Organ weight, Brain, mean: 1.5915
  Organ weight, Eyes with optic nerve, mean: 0.2965
  Organ weight, Heart, mean: 0.7068
  Organ weight, Kidneys, mean: 1.3894
  Organ weight, Liver, mean: 7.3444
  Organ weight, Lungs, mean: 1.5063
  Organ weight, Ovaries, mean: 0.1569
  Organ weight, Spleen, mean: 0.5718
  Organ weight, Thyroid (both lobes with parathyroid), mean: 0.0355
Sprague Dawley rats; Day 15, Group 2 females, p < 0.05, within historical range
  activated partial thromboplastin time vs control: decrease
Sprague Dawley rats; Day 15, Group 2 males
  Organ weight, Brain, mean: 1.5942
  Organ weight, Eyes with optic nerve, mean: 0.3204
  Organ weight, Heart, mean: 1.0593
  Organ weight, Kidneys, mean: 2.1137
  Organ weight, Liver, mean: 11.2236
  Organ weight, Lungs, mean: 2.0208
  Organ weight, Spleen, mean: 0.6991
  Organ weight, Testes, mean: 3.5798
  Organ weight, Thyroid (both lobes with parathyroid), mean: 0.0238
Sprague Dawley rats; Day 15, Group 2 males, p < 0.05, within historical range
  mean corpuscular hemoglobin (MCH) vs control: increase
Sprague Dawley rats; Days 3 and 15, Group 2 males, p < 0.05, not believed biologically meaningful
  alanine aminotransferase (ALT) vs control: elevated
Sprague Dawley rats; […] single i.v.
  organ weights and microscopic pathology findings: No treatm ent-related findings
Sprague Dawley rats; p < 0.05, judged not treatment related
  bodyweights of treated females on Day 3 vs control: significant increase
Human integrin αvβ6
  IC50: 0.56 ± 0.46 nM
Human integrin αvβ6; compete with R01-MG displayed on yeast
  binding affinity for integrin avb6 in competition binding (IC50), in words: subnanomolar
